Data: patent US9695155B2, “Herbicidal substituted pyrimidinyloxy benzene compounds” (E. I. DU PONT DE NEMOURS AND COMPANY, priority 2013, dated 2017)

Assays:
Heteranthera limosa = assay: Test B flooded paddy test; format: in vivo; conditions: Flood, 250 g ai/ha; 0 to 100 scale where 0 is no effect and 100 is complete control
Procedure, shortened: (§1)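 Greenhouse flooded-pot test: compounds dosed into 3 cm standing water over 2-leaf plants, flood held constant. Rated visually after 13–15 days on 0–100 (complete control = 100); a dash marks no test result.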

pigweed [1] = assay: Test C preemergence; format: in vivo, Amaranthus retroflexus; conditions: for Pigweed plant response rating: preemergence, scale 0 (no effect) to 100 (complete control)
Procedure, shortened: (§2)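 Sown in loam/sand → sprayed pre-emergence; or grown to 1–4 leaves in peat mix → sprayed post-emergence. Same solvent/surfactant formulation both ways. Greenhouse 13–15 d. Score 0–100 visual.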

blackgrass = assay: Test C postemergence; format: in vivo, Alopecurus myosuroides; conditions: for Plant response rating (0 to 100), Blackgrass: postemergence; for Plant response rating, Blackgrass: Postemergence, scale 0 to 100 (0 no effect, 100 complete control)
Procedure, shortened: as §2

corn = assay: Test A preemergence; format: in vivo, Zea mays
Procedure, shortened: (§3)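 Compounds in non-phytotoxic solvent with surfactant applied as soil spray preemergence, or postemergence to plants 2-10 cm at one- to two-leaf stage, in loam/sand. After approximately 10 days in greenhouse, injury rated visually versus untreated controls, 0 (no effect) to 100 (complete control).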

yellow nutsedge = assay: Test C preemergence; format: in vivo, Cyperus esculentus; conditions: for Nutsedge, Yellow plant response rating: preemergence, scale 0 (no effect) to 100 (complete control)
Procedure, shortened: as §2

lambsquarters [2] = assay: Test C postemergence; format: in vivo, Chenopodium album; conditions: for Plant response rating (0 to 100), Lambsquarters: postemergence; for Plant response rating, Lambsquarters: Postemergence, scale 0 to 100 (0 no effect, 100 complete control)
Procedure, shortened: as §2

soybean = assay: Test C postemergence; format: in vivo, Glycine max; conditions: for Plant response rating (0 to 100), Soybean: postemergence; for Plant response rating, Soybean: Postemergence, scale 0 to 100 (0 no effect, 100 complete control)
Procedure, shortened: as §2

kochia = assay: Test C postemergence; format: in vivo, Kochia scoparia; conditions: for Plant response rating (0 to 100), Kochia: postemergence; for Plant response rating, Kochia: Postemergence, scale 0 to 100 (0 no effect, 100 complete control)
Procedure, shortened: as §2

wheat, winter = assay: Test C preemergence; format: in vivo, Triticum aestivum; conditions: for Wheat plant response rating: preemergence, scale 0 (no effect) to 100 (complete control)
Procedure, shortened: as §2

rice = assay: Test B flooded paddy test; format: in vivo, Oryza sativa; conditions: Flood, 250 g ai/ha; 0 to 100 scale where 0 is no effect and 100 is complete control
Procedure, shortened: as §1

pigweed [3] = assay: Test C postemergence; format: in vivo, Amaranthus retroflexus; conditions: for Plant response rating (0 to 100), Pigweed: postemergence; for Plant response rating, Pigweed: Postemergence, scale 0 to 100 (0 no effect, 100 complete control)
Procedure, shortened: as §2

Italian ryegrass = assay: Test C postemergence; format: in vivo, Lolium multiflorum; conditions: for Plant response rating (0 to 100), Ryegrass, Italian: postemergence; for Plant response rating, Ryegrass, Italian: Postemergence, scale 0 to 100 (0 no effect, 100 complete control)
Procedure, shortened: as §2

lambsquarters [4] = assay: Test C preemergence; format: in vivo, Chenopodium album; conditions: for Lambsquarters plant response rating: preemergence, scale 0 (no effect) to 100 (complete control)
Procedure, shortened: as §2

morningglory = assay: Test A postemergence; format: in vivo, Ipomoea spp.
Procedure, shortened: as §3

[5] = Preemergence, 31 g ai/ha, scale 0 to 100, 0 no effect, 100 complete control
[6] = 125 g ai/ha, 0 to 100 scale where 0 is no effect and 100 is complete control

FC(F)(F)c1cnn(-c2ccccc2Oc2ncc(Cl)cn2)c1 [Compound 16]
Plant response rating, Ducksalad (Heteranthera limosa): 90 | Pigweed plant response rating (pigweed [1]; 62 g ai/ha): 100 | Pigweed plant response rating (pigweed [1]; 125 g ai/ha): 100 | Pigweed plant response rating (pigweed [1]; 250 g ai/ha): 100 | Plant response rating, Pigweed (pigweed [1]; [5]): 100 | Plant response rating (0 to 100), Blackgrass (blackgrass; 125 g ai/ha): 30 | Plant response rating (0 to 100), Blackgrass (blackgrass; 250 g ai/ha): 70 | Plant response rating, Blackgrass (blackgrass; 31 g ai/ha, 13 to 15 days): 5 | Plant response rating, Blackgrass (blackgrass; 62 g ai/ha): 30 | Corn plant response rating (corn; [6]): 10 | Corn plant response rating (corn; 500 g ai/ha, 0 to 100 scale, 0 no effect, 100 complete control, approx. 10 days): 30 | Nutsedge, Yellow plant response rating (yellow nutsedge; 62 g ai/ha): 25 | Nutsedge, Yellow plant response rating (yellow nutsedge; 125 g ai/ha): 65 | Nutsedge, Yellow plant response rating (yellow nutsedge; 250 g ai/ha): 65 | Plant response rating, Nutsedge, Yellow (yellow nutsedge; [5]): 15 | Plant response rating (0 to 100), Lambsquarters (lambsquarters [2]; 125 g ai/ha): 100 | Plant response rating (0 to 100), Lambsquarters (lambsquarters [2]; 250 g ai/ha): 100 | Plant response rating, Lambsquarters (lambsquarters [2]; 31 g ai/ha, 13 to 15 days): 75 | Plant response rating, Lambsquarters (lambsquarters [2]; 62 g ai/ha): 100 | Plant response rating (0 to 100), Soybean (soybean; 125 g ai/ha): 90 | Plant response rating (0 to 100), Soybean (soybean; 250 g ai/ha): 90 | Plant response rating, Soybean (soybean; 31 g ai/ha, 13 to 15 days): 75 | Plant response rating, Soybean (soybean; 62 g ai/ha): 85 | Plant response rating (0 to 100), Kochia (kochia; 125 g ai/ha): 98 | Plant response rating (0 to 100), Kochia (kochia; 250 g ai/ha): 100 | Plant response rating, Kochia (kochia; 31 g ai/ha, 13 to 15 days): 35 | Plant response rating, Kochia (kochia; 62 g ai/ha): 80 | Wheat plant response rating (wheat, winter; 62 g ai/ha): 0 | Wheat plant response rating (wheat, winter; 125 g ai/ha): 35 | Wheat plant response rating (wheat, winter; 250 g ai/ha): 60 | Plant response rating, Wheat (wheat, winter; [5]): 0 | Plant response rating, Rice (rice): 40 | Plant response rating (0 to 100), Pigweed (pigweed [3]; 125 g ai/ha): 100 | Plant response rating (0 to 100), Pigweed (pigweed [3]; 250 g ai/ha): 100 | Plant response rating, Pigweed (pigweed [3]; 31 g ai/ha, 13 to 15 days): 80 | Plant response rating, Pigweed (pigweed [3]; 62 g ai/ha): 98 | Plant response rating (0 to 100), Ryegrass, Italian (Italian ryegrass; 125 g ai/ha): 20 | Plant response rating (0 to 100), Ryegrass, Italian (Italian ryegrass; 250 g ai/ha): 20 | Plant response rating, Ryegrass, Italian (Italian ryegrass; 31 g ai/ha, 13 to 15 days): 10 | Plant response rating, Ryegrass, Italian (Italian ryegrass; 62 g ai/ha): 15 | Lambsquarters plant response rating (lambsquarters [4]; 62 g ai/ha): 80 | Lambsquarters plant response rating (lambsquarters [4]; 125 g ai/ha): 80 | Lambsquarters plant response rating (lambsquarters [4]; 250 g ai/ha): 90 | Plant response rating, Lambsquarters (lambsquarters [4]; [5]): 20 | Plant response rating, Morningglory (morningglory; [6]): 90 | Plant response rating, Morningglory (morningglory; 500 g ai/ha, 0 to 100 scale, 0 no effect, 100 complete control): 100
